Source: patent US8653102B2, “Substituted 2-oxo- and 2-thioxo-dihydroquinoline-3-carboxamides as KCNQ2/3 modulators” (Gruenenthal GmbH, priority 2010, dated 2014)
pEC50: −log10 of the molar value. Where two headings read alike, the source gives them in different places.

Target: T1, KCNQ2/3 channels (Homo sapiens, UniProt O43525+O43526)
T1 construct: expressed in transfected cells; host or cells: CHO-K1 cells kept under selection antibiotics
Assay: Fluorescence assay using a voltage sensitive dye (fluorimetry)
Type: cell-based
Procedure: Pharmacological Experiments Method I. Fluorescence Assay Using a Voltage Sensitive Dye (Fluorimetry)
[…] CHO-K1 cells expressing KCNQ2/3 channels are cultivated adherently at 37° C., 5% CO2 and 95% humidity in cell culture bottles (e.g. 80 cm^2 TC flasks, Nunc) with DMEM-high glucose (Sigma Aldrich, D7777) including 10% FCS (PAN Biotech, e.g. 3302-P270521) or alternatively MEM Alpha Medium (1×, liquid, Invitrogen, #22571), 10% fetal calf serum (FCS) (Invitrogen, #10270-106, heat-inactivated) and the necessary selection antibiotics.
Before being sown out for the measurements, the cells are washed with 1×DPBS buffer Ca^2+/Mg^2+-free (e.g. Invitrogen, #14190-094) and detached from the bottom of the culture vessel by using Accutase (PAA Laboratories, #L11-007) (incubation with Accutase for 15 min at 37° C.). The cell number is determined using a CASY™ cell counter (TCC, Schärfe System). Depending on the optimal density for each individual cell line, 20,000-30,000 cells/well/100 μl are seeded onto 96-well Corning™ CellBIND™ assay plates (Flat Clear Bottom Black Polystyrene Microplates, #3340). Freshly seeded cells are then left to settle for one hour at room temperature, followed by incubation for 24 hours at 37° C., 5% CO2 and 95% humidity.
The voltage-sensitive fluorescent dye from the Membrane Potential Assay Kit (Red™ Bulk format part R8123 for FLIPR, MDS Analytical Technologies™) is prepared by dissolving the contents of one vessel Membrane Potential Assay Kit Red Component A in 200 ml of extracellular buffer (ES buffer, 120 mM NaCl, 1 mM KCl, 10 mM HEPES, 2 mM CaCl2, 2 mM MgCl2, 10 mM glucose; pH 7.4). After removal of the nutrient medium, the cells are washed once with 200 μl of ES buffer, then loaded for 45 min at room temperature in 100 μl of dye solution in the dark.
Fluorescence measurements are carried out in a BMG Labtech FLUOstar™, BMG Labtech NOVOstar™ or BMG Labtech POLARstar™ instrument (525 nm excitation, 560 nm emission, Bottom Read mode). After incubation with the dye, 50 μl of the test substances in the desired concentrations, or 50 μl of ES buffer for control purposes, are applied to the wells of the assay plate and incubated for 30 min at room temperature while being shielded from light. The fluorescence intensity of the dye is then measured for 5 min and the fluorescence value F1 of each well is thus determined at a given, constant time. 15 μl of a KCl solution are then added to each well (final concentration of potassium ions 92 mM). The change in fluorescence intensity is subsequently monitored until all the relevant values have been obtained (mainly 5-30 min). At a given time post KCl application, a fluorescence value F2 is determined, in this case at the time of the fluorescence peak.
For calculation, the fluorescence intensity F2 is corrected for the fluorescence intensity F1, and the activity (ΔF/F) of the target compound on the potassium channel is determined as follows:
In order to determine whether a substance has agonistic activity,
A substance has an agonistic activity on the potassium channel if
[formula] increases dose dependently.
Calculations of EC50 and IC50 values are carried out with the aid of ‘Prism v4.0’ software (GraphPad Software™).

[1] = CHO-K1 cells expressing KCNQ2/3 channels
[2] = CHO-K1 cells expressing KCNQ2/3 channels, relative to retigabine (RTG) = 100%, read-out: Fluorimetry % efficacy (RTG = 100%)

Row | pEC50 [1] | Emax [2] [%] | Compound | Fluorimetry % efficacy (RTG = 100%) (CHO-K1 cells expressing KCNQ2/3 channels, relative to retigabine (RTG) = 100%) [%] | Emax (CHO-K1, read-out: Fluorimetry % efficacy (RTG = 100%)) [%]
1 | 6.42 | 173 | CCn1c(=O)c(C(=O)NCc2cccc(F)c2)c(C)c2ccc(C(F)(F)F)cc21 [Example 5, 1-ethyl-N-[(3-fluorophenyl)-methyl]-4-methyl-2-oxo-7-(trifluoromethyl)-1H-quinoline-3-carboxylic acid amide] |  | 
2 | 6.40 | 175 | CCn1c(=O)c(C(=O)NCc2ccc(F)cc2)c(C)c2ccc(C(F)(F)F)cc21 [Example 8, 1-ethyl-N-[(4-fluorophenyl)-methyl]-4-methyl-2-oxo-7-(trifluoromethyl)-1H-quinoline-3-carboxylic acid amide] |  | 
3 | 5.25 | 63 | Cc1c(C(=O)NCc2cccc(F)c2)c(=O)n(C)c2ccccc12 [Example 9, N-[(3-fluorophenyl)-methyl]-1,4-dimethyl-2-oxo-1H-quinoline-3-carboxylic acid amide] |  | 
4 |  | 22 | COCCn1c(=O)c(C(=O)NCc2cccc(F)c2)c(C)c2ccccc21 [Example 10, N-[(3-fluorophenyl)-methyl]-1-(2-methoxy-ethyl)-4-methyl-2-oxo-1H-quinoline-3-carboxylic acid amide] |  | 
5 | 6.39 | 167 | CCCn1c(=O)c(C(=O)NCc2cccc(F)c2)c(C)c2ccc(C(F)(F)F)cc21 [Example 11, N-[(3-fluorophenyl)-methyl]-4-methyl-2-oxo-1-propyl-7-(trifluoromethyl)-1H-quinoline-3-carboxylic acid amide] |  | 
6 | 5.70 | 78 | COCCOCCn1c(=O)c(C(=O)NCc2cccc(F)c2)c(C)c2ccc(C(F)(F)F)cc21 [Example 15, N-[(3-fluorophenyl)-methyl]-1-[2-(2-methoxy-ethoxy)-ethyl]-4-methyl-2-oxo-7-(trifluoromethyl)-1H-quinoline-3-carboxylic acid amide] |  | 
7 | 5.90 | 143 | Cc1c(C(=O)NCc2cccc(F)c2)c(=O)n(C)c2cc(C#N)ccc12 [Example 20, 7-cyano-N-[(3-fluorophenyl)-methyl]-1,4-dimethyl-2-oxo-1H-quinoline-3-carboxylic acid amide] |  | 
8 | 6.08 | 136 | Cc1c(C(=O)NCc2ccc(F)cc2)c(=O)n(C)c2cc(C#N)ccc12 [Example 21, 7-cyano-N-[(4-fluorophenyl)-methyl]-1,4-dimethyl-2-oxo-1H-quinoline-3-carboxylic acid amide] |  | 
9 | 5.50 | 102 | COCCn1c(=O)c(C(=O)NCc2cccc(F)c2)c(C)c2ccc(C#N)cc21 [Example 22, 7-cyano-N-[(3-fluorophenyl)-methyl]-1-(2-methoxy-ethyl)-4-methyl-2-oxo-1H-quinoline-3-carboxylic acid amide] |  | 
10 | 5.41 | 105 | COCCn1c(=O)c(C(=O)NCc2ccc(F)cc2)c(C)c2ccc(C#N)cc21 [Example 23, 7-cyano-N-[(4-fluorophenyl)-methyl]-1-(2-methoxy-ethyl)-4-methyl-2-oxo-1H-quinoline-3-carboxylic acid amide] |  | 
11 | 6.78 | 231 | COCCn1c(=O)c(C(=O)NCCCC(C)(C)C)c(C)c2ccc(C(F)(F)F)cc21 [Example 24, N-(4,4-dimethyl-pentyl)-1-(2-methoxy-ethyl)-4-methyl-2-oxo-7-(trifluoromethyl)-1H-quinoline-3-carboxylic acid amide] |  | 
12 | 7.17 | 258 | Cc1c(C(=O)NCCCC(C)(C)C)c(=O)n(C)c2cc(C(F)(F)F)ccc12 [Example 25, N-(4,4-dimethyl-pentyl)-1,4-dimethyl-2-oxo-7-(trifluoromethyl)-1H-quinoline-3-carboxylic acid amide] |  | 
13 |  | 22 | COC(=O)CCn1c(=O)c(C(=O)N(C)c2cccc(F)c2)c(C)c2ccc(C(F)(F)F)cc21 [Example 27, 3-[3-[(3-fluorophenyl)-methyl-carbamoyl]-4-methyl-2-oxo-7-(trifluoromethyl)-1H-quinolin-1-yl]-propionic acid methyl ester] |  | 
14 |  | 16 | Cc1c(C(=O)N(C)c2cccc(F)c2)c(=O)n(CC(=O)O)c2cc(C(F)(F)F)ccc12 [Example 28, 2-[3-[(3-fluorophenyl)-methyl-carbamoyl]-4-methyl-2-oxo-7-(trifluoromethyl)-1H-quinolin-1-yl]-acetic acid] |  | 
15 |  | 6 | Cc1c(C(=O)N(C)c2cccc(F)c2)c(=O)n(CCC(=O)O)c2cc(C(F)(F)F)ccc12 [Example 29, 3-[3-[(3-fluorophenyl)-methyl-carbamoyl]-4-methyl-2-oxo-7-(trifluoromethyl)-1H-quinolin-1-yl]-propionic acid] |  | 
16 | 6.71 | 133 | CCC(COC)n1c(=O)c(C(=O)NCc2cccc(F)c2)c(C)c2ccc(C(F)(F)F)cc21 (stereo not shown) [Example 30, N-[(3-fluorophenyl)-methyl]-1-[1-(methoxymethyl)-propyl]-4-methyl-2-oxo-7-(trifluoromethyl)-1H-quinoline-3-carboxylic acid amide] |  | 
17 |  | 26 | CCC(Cn1c(=O)c(C(=O)NCc2cccc(F)c2)c(C)c2ccc(C(F)(F)F)cc21)OC (stereo not shown) [Example 32, N-[(3-fluorophenyl)-methyl]-1-(2-methoxy-butyl)-4-methyl-2-oxo-7-(trifluoromethyl)-1H-quinoline-3-carboxylic acid amide] |  | 
18 | 6.41 | 138 | Cc1c(C(=O)NCc2cccc(F)c2)c(=O)n(C)c2cc(OC(F)(F)F)ccc12 [Example 33, N-[(3-fluorophenyl)-methyl]-1,4-dimethyl-2-oxo-7-(trifluoromethyloxy)-1H-quinoline-3-carboxylic acid amide] |  | 
19 | 5.50 | 105 | Cc1c(C(=O)NCc2cccc(F)c2)c(=O)n(C)c2cc(F)ccc12 [Example 34, 7-fluoro-N-[(3-fluorophenyl)-methyl]-1,4-dimethyl-2-oxo-1H-quinoline-3-carboxylic acid amide] |  | 

Row | Compound | pEC50 [1] | Emax [2] [%] | Fluorimetry % efficacy (RTG = 100%) (CHO-K1 cells expressing KCNQ2/3 channels, relative to retigabine (RTG) = 100%) [%] | Emax (CHO-K1, read-out: Fluorimetry % efficacy (RTG = 100%)) [%]
20 | 2-[3-[(3-fluorophenyl)-methyl-carbamoyl]-4-methyl-2-oxo-7-(trifluoromethyl)-1H-quinolin-1-yl]-acetic acid methyl ester [Example 26] | 6.00 |  | 108 | 
21 | CCCCn1c(=O)c(C(=O)NCc2cccc(F)c2)c(C)c2ccc(C(F)(F)F)cc21 [Example 2, 1-butyl-N-[(3-fluorophenyl)-methyl]-4-methyl-2-oxo-7-(trifluoromethyl)-1H-quinoline-3-carboxylic acid amide] | 6.63 | 90 |  | 
22 | Cc1c(C(=O)NCc2cccc(F)c2)c(=O)n(CCC(C)C)c2cc(C(F)(F)F)ccc12 [Example 12, N-[(3-fluorophenyl)-methyl]-4-methyl-1-(3-methyl-butyl)-2-oxo-7-(trifluoromethyl)-1H-quinoline-3-carboxylic acid amide] |  | 33 |  | 
23 | Cc1c(C(=O)NCc2cccc(F)c2)c(=O)n(CCCC(C)C)c2cc(C(F)(F)F)ccc12 [Example 13, N-[(3-fluorophenyl)-methyl]-4-methyl-1-(4-methyl-pentyl)-2-oxo-7-(trifluoromethyl)-1H-quinoline-3-carboxylic acid amide] |  | 3 |  | 
24 | COCCCn1c(=O)c(C(=O)NCc2cccc(F)c2)c(C)c2ccc(C(F)(F)F)cc21 [Example 14, N-[(3-fluorophenyl)-methyl]-1-(3-methoxy-propyl)-4-methyl-2-oxo-7-(trifluoromethyl)-1H-quinoline-3-carboxylic acid amide] | 6.00 | 61 |  | 
25 | COCC(COC)n1c(=O)c(C(=O)NCc2cccc(F)c2)c(C)c2ccc(C(F)(F)F)cc21 [Example 31, N-[(3-Fluorophenyl)-methyl]-1-[2-methoxy-1-(methoxymethyl)-ethyl]-4-methyl-2-oxo-7-(trifluoromethyl)-1H-quinoline-3-carboxylic acid amide] | 7.10 |  |  | 46
